Measurements as given in the NIST ThermoML archive (doi:10.1021/je5009125).
Numbers after ± are expanded uncertainties.

Assay: xn = mol fraction of the nth substance listed
Conditions: Liquid; for mass density: Vibrating tube method; for viscosity: Vibrating wire viscometry

## O=C=O [carbon dioxide] + O
274.72 K, 30290 kPa, x1 = 0.0271
  mass density: 1030.1 ± 0.7 kg/m3
274.72 K, 50410 kPa, x1 = 0.0271
  mass density: 1038.8 ± 0.7 kg/m3
274.72 K, 70530 kPa, x1 = 0.0271
  mass density: 1047.2 ± 0.7 kg/m3
274.72 K, 100770 kPa, x1 = 0.0271
  mass density: 1059.2 ± 0.8 kg/m3
274.73 K, 15010 kPa, x1 = 0.0086
  mass density: 1012 ± 0.7 kg/m3
274.73 K, 30110 kPa, x1 = 0.0086
  mass density: 1019 ± 0.7 kg/m3
274.73 K, 50240 kPa, x1 = 0.0086
  mass density: 1028.1 ± 0.7 kg/m3
274.73 K, 70360 kPa, x1 = 0.0086
  mass density: 1036.8 ± 0.7 kg/m3
274.73 K, 100670 kPa, x1 = 0.0086
  mass density: 1049.3 ± 0.7 kg/m3
274.77 K, 15080 kPa, x1 = 0.0168
  mass density: 1017.3 ± 0.7 kg/m3
274.77 K, 30190 kPa, x1 = 0.0168
  mass density: 1024.1 ± 0.7 kg/m3
274.77 K, 50310 kPa, x1 = 0.0168
  mass density: 1033 ± 0.7 kg/m3
274.77 K, 70430 kPa, x1 = 0.0168
  mass density: 1041.6 ± 0.7 kg/m3
274.77 K, 100710 kPa, x1 = 0.0168
  mass density: 1053.9 ± 0.7 kg/m3
294.27 K, 15100 kPa, x1 = 0.0168
  viscosity: 1.049 ± 0.016 mPa·s
294.27 K, 30200 kPa, x1 = 0.0168
  viscosity: 1.044 ± 0.016 mPa·s
294.27 K, 50200 kPa, x1 = 0.0168
  viscosity: 1.044 ± 0.016 mPa·s
294.27 K, 70200 kPa, x1 = 0.0168
  viscosity: 1.041 ± 0.016 mPa·s
294.27 K, 96300 kPa, x1 = 0.0168
  viscosity: 1.046 ± 0.016 mPa·s
294.3 K, 15100 kPa, x1 = 0.0086
  viscosity: 1.013 ± 0.016 mPa·s
294.3 K, 30200 kPa, x1 = 0.0086
  viscosity: 1.014 ± 0.016 mPa·s
294.3 K, 50300 kPa, x1 = 0.0086
  viscosity: 1.012 ± 0.016 mPa·s
294.3 K, 70300 kPa, x1 = 0.0086
  viscosity: 1.008 ± 0.016 mPa·s
294.3 K, 96400 kPa, x1 = 0.0086
  viscosity: 1.008 ± 0.016 mPa·s
294.31 K, 30300 kPa, x1 = 0.0271
  viscosity: 1.096 ± 0.017 mPa·s
294.31 K, 50300 kPa, x1 = 0.0271
  viscosity: 1.095 ± 0.017 mPa·s
294.31 K, 70400 kPa, x1 = 0.0271
  viscosity: 1.097 ± 0.017 mPa·s
294.31 K, 96500 kPa, x1 = 0.0271
  viscosity: 1.1 ± 0.017 mPa·s
296.17 K, 15100 kPa, x1 = 0.0086
  mass density: 1008.6 ± 0.7 kg/m3
296.17 K, 30200 kPa, x1 = 0.0086
  mass density: 1015 ± 0.7 kg/m3
296.17 K, 50260 kPa, x1 = 0.0086
  mass density: 1023.4 ± 0.7 kg/m3
296.17 K, 70330 kPa, x1 = 0.0086
  mass density: 1031.4 ± 0.7 kg/m3
296.17 K, 100650 kPa, x1 = 0.0086
  mass density: 1042.9 ± 0.7 kg/m3
296.18 K, 30250 kPa, x1 = 0.0271
  mass density: 1025.3 ± 0.7 kg/m3
296.18 K, 50360 kPa, x1 = 0.0271
  mass density: 1033.4 ± 0.7 kg/m3
296.18 K, 70440 kPa, x1 = 0.0271
  mass density: 1041.2 ± 0.7 kg/m3
296.18 K, 100760 kPa, x1 = 0.0271
  mass density: 1052.6 ± 0.7 kg/m3
296.19 K, 15070 kPa, x1 = 0.0168
  mass density: 1013.3 ± 0.7 kg/m3
296.19 K, 30170 kPa, x1 = 0.0168
  mass density: 1019.7 ± 0.7 kg/m3
296.19 K, 50300 kPa, x1 = 0.0168
  mass density: 1027.9 ± 0.7 kg/m3
296.19 K, 70410 kPa, x1 = 0.0168
  mass density: 1035.9 ± 0.7 kg/m3
296.19 K, 100730 kPa, x1 = 0.0168
  mass density: 1047.3 ± 0.7 kg/m3
322.91 K, 15000 kPa, x1 = 0.0168
  viscosity: 0.568 ± 0.01 mPa·s
322.91 K, 30100 kPa, x1 = 0.0168
  viscosity: 0.573 ± 0.01 mPa·s
322.91 K, 50200 kPa, x1 = 0.0168
  viscosity: 0.578 ± 0.01 mPa·s
322.91 K, 70200 kPa, x1 = 0.0168
  viscosity: 0.584 ± 0.01 mPa·s
322.91 K, 96200 kPa, x1 = 0.0168
  viscosity: 0.592 ± 0.01 mPa·s
322.93 K, 15000 kPa, x1 = 0.0086
  viscosity: 0.56 ± 0.01 mPa·s
322.93 K, 30100 kPa, x1 = 0.0086
  viscosity: 0.564 ± 0.01 mPa·s
322.93 K, 50200 kPa, x1 = 0.0086
  viscosity: 0.568 ± 0.01 mPa·s
322.93 K, 70200 kPa, x1 = 0.0086
  viscosity: 0.573 ± 0.01 mPa·s
322.93 K, 96300 kPa, x1 = 0.0086
  viscosity: 0.582 ± 0.01 mPa·s
323.12 K, 70400 kPa, x1 = 0.0271
  viscosity: 0.606 ± 0.01 mPa·s
323.12 K, 96500 kPa, x1 = 0.0271
  viscosity: 0.615 ± 0.01 mPa·s
323.43 K, 15060 kPa, x1 = 0.0168
  mass density: 1002.5 ± 0.7 kg/m3
323.43 K, 30180 kPa, x1 = 0.0168
  mass density: 1008.8 ± 0.7 kg/m3
323.43 K, 50300 kPa, x1 = 0.0168
  mass density: 1016.9 ± 0.7 kg/m3
323.43 K, 70420 kPa, x1 = 0.0168
  mass density: 1024.6 ± 0.7 kg/m3
323.43 K, 70460 kPa, x1 = 0.0271
  mass density: 1029.6 ± 0.7 kg/m3
323.43 K, 100720 kPa, x1 = 0.0168
  mass density: 1035.7 ± 0.7 kg/m3
323.43 K, 100780 kPa, x1 = 0.0271
  mass density: 1040.7 ± 0.7 kg/m3
323.45 K, 15020 kPa, x1 = 0.0086
  mass density: 998.4 ± 0.7 kg/m3
323.45 K, 30130 kPa, x1 = 0.0086
  mass density: 1004.7 ± 0.7 kg/m3
323.45 K, 50250 kPa, x1 = 0.0086
  mass density: 1012.8 ± 0.7 kg/m3
323.45 K, 70360 kPa, x1 = 0.0086
  mass density: 1020.6 ± 0.7 kg/m3
323.45 K, 100720 kPa, x1 = 0.0086
  mass density: 1031.6 ± 0.7 kg/m3
348.32 K, 15050 kPa, x1 = 0.0086
  mass density: 984.8 ± 0.7 kg/m3
348.32 K, 30150 kPa, x1 = 0.0086
  mass density: 991.3 ± 0.7 kg/m3
348.32 K, 50270 kPa, x1 = 0.0086
  mass density: 999.5 ± 0.7 kg/m3
348.32 K, 70370 kPa, x1 = 0.0086
  mass density: 1007.3 ± 0.7 kg/m3
348.32 K, 100710 kPa, x1 = 0.0086
  mass density: 1018.6 ± 0.7 kg/m3
348.33 K, 70580 kPa, x1 = 0.0271
  mass density: 1015.3 ± 0.7 kg/m3
348.33 K, 100780 kPa, x1 = 0.0271
  mass density: 1026.8 ± 0.7 kg/m3
348.38 K, 30200 kPa, x1 = 0.0168
  mass density: 994.9 ± 0.7 kg/m3
348.38 K, 50320 kPa, x1 = 0.0168
  mass density: 1003.2 ± 0.7 kg/m3
348.38 K, 70450 kPa, x1 = 0.0168
  mass density: 1011.1 ± 0.7 kg/m3
348.38 K, 100740 kPa, x1 = 0.0168
  mass density: 1022.4 ± 0.7 kg/m3
373.03 K, 30100 kPa, x1 = 0.0168
  viscosity: 0.2932 ± 0.0062 mPa·s
373.03 K, 50200 kPa, x1 = 0.0168
  viscosity: 0.2989 ± 0.0062 mPa·s
373.03 K, 70200 kPa, x1 = 0.0168
  viscosity: 0.304 ± 0.0063 mPa·s
373.03 K, 96200 kPa, x1 = 0.0168
  viscosity: 0.3111 ± 0.0064 mPa·s
373.13 K, 15000 kPa, x1 = 0.0086
  viscosity: 0.286 ± 0.006 mPa·s
373.13 K, 30100 kPa, x1 = 0.0086
  viscosity: 0.291 ± 0.006 mPa·s
373.13 K, 50200 kPa, x1 = 0.0086
  viscosity: 0.297 ± 0.006 mPa·s
